Test results from US8691280B2, “Microsphere comprising an organic lanthanide metal complex” (UMC Utrecht Holding B.V., priority 2007, dated 2014).

Assay: Determination of lanthanide (holmium, gadolinium) content of microspheres by complexometric titration and ICP-OES
Assay type: physicochemical
Details: Table 1, measured composition
Method: The holmium content of the microspheres was determined using the complexometric titration for aluminium that has been described in the European Pharmacopoeia. In short, approximately 50 mg of the dried microspheres is accurately weighed, and dissolved in 1 N NaOH. To this solution 1 N HCl is added and the solution is diluted to 50 ml, 5 grams hexamethylentetramine is added and the pH is adjusted to 5, using 1 N HCl. Approximately 50 mg of xylenol orange is added as an indicator, and the solution is then titrated with 0.01 M EDTA, until the colour changes from purple to yellow. Analyses were performed in triplicate.
The holmium content was measured by inductively coupled plasma optical emission spectrometry (IPC-OES). The microspheres are weighed and destructed at 100° C. with 5 ml 1 N NaOH, which was evaporated to dryness. 15 ml of 2% Nitric acid was added followed by a 1 in 50 dilution. Samples were introduced in an Optima 4300 CV (PerkinElmer; Norwalk, USA) and […] was measured at three different wavelengths (345.600, 339.898 and 347.426 nm) to accurately determine the holmium content.
The gadolinium content of the GdAcAc microspheres was determined in the same way as described in Example 1.

In the case of “holmium acetylacetonate [HoAcAc crystals]”, the “Ho, measured elemental composition” value is reported as 31.2 % w/w.
